Results reported in patent US20240041042A1, “1-(PYRIDYL)-5-AZINYLPYRAZOLE DERIVATIVES, AND THEIR USE FOR CONTROL OF UNDESIRED PLANT GROWTH” (Bayer Aktiengesellschaft, priority 2020, published 2024).
Read-outs that look alike come from different tables or passages of the source.

Key:
Assay type in all cases: in vivo
[1] = test system: Setaria viridis (SETVI); assay: Post-emergence herbicidal action against SETVI
How it was run: (§1)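 Doses of 320 g/ha or lower, suffixes a, b and c marking different dosages, were applied post-emergence at the one-leaf stage in 600 l/ha water with 0.5% additive. Damage was assessed visually after about 3 weeks in the greenhouse.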

[2] = test system: Abutilon theophrasti (ABUTH); assay: Post-emergence herbicidal action against ABUTH; details: visual rating about 3 weeks after treatment vs untreated controls (100% = plants have died, 0% = like control plants)
How it was run: as §1

[3] = test system: Digitaria sanguinalis (DIGSA); assay: Post-emergence herbicidal action against DIGSA; details: visual rating about 3 weeks after treatment
Protocol: Seeds of monocotyledonous and dicotyledonous weeds and crop plants are placed in sandy loam in plastic or organic planting pots, covered with soil and cultivated in a greenhouse under controlled growth conditions. 2 to 3 weeks after sowing, the test plants are treated at the one-leaf stage. The compounds of the invention, formulated in the form of wettable powders (WP) or as emulsion concentrates (EC), are then sprayed onto the green parts of the plants as aqueous suspension or emulsion with addition of 0.5% additive at a water application rate of 600 l/ha (converted). After the test plants have been kept in the greenhouse under optimum growth conditions for about 3 weeks, the activity of the preparations is rated visually in comparison to untreated controls. For example, 100% activity=the plants have died, 0% activity=like control plants.
Tables B1 to B13 below show the effects of selected compounds of the general formula (I) according to Table 1 on various harmful plants and at an application rate corresponding to 320 g/ha or lower, which were obtained by the experimental procedure mentioned above. The appendices “a”, “b” and “c” give differentiation by dosage used with otherwise the same harmful plants tested.

[4] = test system: Polygonum convolvulus (POLCO); assay: Post-emergence herbicidal action against POLCO
How it was run: as §1

[5] = test system: Alopecurus myosuroides (ALOMY); assay: Post-emergence herbicidal action against ALOMY; details: visual rating about 3 weeks after treatment vs untreated controls (100% = plants have died, 0% = like control plants)
How it was run: as §1

[6] = test system: Echinochloa crus-galli (ECHCG); assay: Post-emergence herbicidal action against ECHCG
How it was run: as §1

[7] = test system: Avena fatua (AVEFA); assay: Post-emergence herbicidal action against AVEFA; details: visual rating about 3 weeks after treatment
How it was run: as §1

[8] = test system: Verconica persica (VERPE); assay: Post-emergence herbicidal action against VERPE
How it was run: as §1

[9] = test system: Amaranthus retroflexus (AMARE); assay: Post-emergence herbicidal action against AMARE
How it was run: as §1

[10] = test system: Lolium rigidum (LOLRI); assay: Post-emergence herbicidal action against LOLRI
How it was run: as §1

[11] = test system: Zea mays (ZEAMX); details: for Post-emergence action against ZEAMX in % (crop plant compatibility): 20 g/ha, effect in comparison to untreated controls; for Post-emergence action against ZEAMX in %: crop plant compatibility, effect vs untreated controls
How it was run: (§2)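 Foliar application at the one-leaf stage: WP/EC formulation, 0.5% additive, 600 l/ha water. Greenhouse-grown in sandy loam. Endpoint is visual % injury relative to untreated controls at about 3 weeks.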

[12] = test system: Oryza sativa (ORYSA); details: crop plant compatibility
How it was run: as §2

[13] = test system: Viola tricolor (VIOTR); assay: Post-emergence herbicidal action against VIOTR
How it was run: as §1

[14] = test system: Pharbitis purpurea (PHBPU); assay: Post-emergence herbicidal action against PHBPU
How it was run: as §1

[15] = test system: Matricaria inodora (MATIN); assay: Post-emergence herbicidal action against MATIN
How it was run: as §1

[16] = 80 g/ha, visual rating about 3 weeks after treatment vs untreated controls (100% = plants have died, 0% = like control plants)
[17] = 320 g/ha, visual rating about 3 weeks after treatment
[18] = 20 g/ha, effect vs untreated controls
[19] = 80 g/ha, effect in comparison to untreated controls

SMILES	Post-emergence action against SETVI in % ([1]; dosage 80 g/ha) [%]	Post-emergence action against SETVI in % ([1]; dosage 320 g/ha) [%]	Post-emergence action against DIGSA in % ([3]; 80 g/ha) [%]	Post-emergence action against DIGSA in % ([3]; 320 g/ha) [%]	Post-emergence action against POLCO in % ([4]; dosage 80 g/ha) [%]	Post-emergence action against POLCO in % ([4]; dosage 320 g/ha) [%]	Post-emergence action against ALOMY in % ([5]; 320 g/ha) [%]	Post-emergence action against ECHCG in % ([6]; dosage 80 g/ha) [%]	Post-emergence action against ECHCG in % ([6]; dosage 320 g/ha) [%]	Post-emergence action against AVEFA in % ([7]; 80 g/ha) [%]	Post-emergence action against AVEFA in % ([7]; 320 g/ha) [%]	Post-emergence action against VERPE in % ([8]; 320 g/ha, VERPE) [%]	Post-emergence action against VERPE in % ([8]; dosage 80 g/ha) [%]	Post-emergence action against LOLRI in % ([10]; dosage 80 g/ha) [%]	Post-emergence action against LOLRI in % ([10]; dosage 320 g/ha) [%]	Post-emergence action against ZEAMX in % (crop plant compatibility) [11] [%]	Post-emergence action against ORYSA in % [12, 18] [%]	Post-emergence action against VIOTR in % ([13]; 80 g/ha) [%]	Post-emergence action against VIOTR in % ([13]; 320 g/ha) [%]	Post-emergence action against PHBPU in % ([14]; dosage 320 g/ha) [%]	other results
CC(C)OC(=O)COc1nn(-c2ncccc2F)c(-c2ccc(F)nc2)c1C1CC1 [Example I-328]	90	90	90	90	90	90	90	90	90	90	90	90	90	90	90	0	0	80	90	90	Post-emergence action against ABUTH in % ([2]; 80 g/ha): 80%; Post-emergence action against ABUTH in % ([2]; 320 g/ha): 80%; Post-emergence action against ALOMY in % ([5]; 80 g/ha): 90%; Post-emergence action against AMARE in % [9, 16]: 90%; Post-emergence action against AMARE in % [9, 17]: 90%; Post-emergence action against ZEAMX in % ([11]; 80 g/ha): 0%; Post-emergence action against PHBPU in % ([14]; dosage 80 g/ha): 90%
CCOC(=O)[C@@H](C)Oc1nn(-c2ncccc2F)c(-c2ccnc(F)c2)c1Br [Example I-133]	–	80	–	80	80	80	90	–	90	–	80	80	80	–	90	0	0	80	90	80	Post-emergence action against ABUTH in % ([2]; 320 g/ha): 80%; Post-emergence action against ZEAMX in % ([11]; 80 g/ha): 0%; Post-emergence action against ZEAMX in % ([11]; 320 g/ha): 20%; Post-emergence action against ORYSA in % [12, 19]: 10%
COC(=O)C(C)COC(=O)[C@@H](C)Oc1nn(-c2ccccn2)c(-c2ccc(F)nc2)c1Cl (some centres unmarked) [Example I-267]	90	90	–	90	80	80	90	–	90	90	90	90	90	90	100	0	–	90	90	90	Post-emergence action against ABUTH in % ([2]; 80 g/ha): 80%; Post-emergence action against ABUTH in % ([2]; 320 g/ha): 90%; Post-emergence action against AMARE in % [9, 16]: 80%; Post-emergence action against AMARE in % [9, 17]: 80%; Post-emergence action against ZEAMX in % ([11]; 80 g/ha): 20%
CCOC(=O)COc1nn(-c2ncccc2F)c(-c2cncc(F)c2)c1C(F)(F)F [Example I-141]	90	90	90	90	80	80	90	80	80	–	80	90	90	–	90	–	10	80	80	90	Post-emergence action against MATIN in % ([15]; dosage 80 g/ha): 80%; Post-emergence action against MATIN in % ([15]; dosage 320 g/ha): 90%; Post-emergence action against AMARE in % [9, 16]: 80%; Post-emergence action against AMARE in % [9, 17]: 90%; Post-emergence action against PHBPU in % ([14]; dosage 80 g/ha): 80%
C[C@@H](Oc1nn(-c2ncccc2F)c(-c2cncc(F)c2)c1C1CC1)C(=O)O [Example I-166]	90	90	90	90	80	80	90	80	80	90	90	80	80	80	90	10	0	80	80	90	Post-emergence action against MATIN in % ([15]; dosage 80 g/ha): 80%; Post-emergence action against MATIN in % ([15]; dosage 320 g/ha): 90%; Post-emergence action against ALOMY in % ([5]; 80 g/ha): 90%; Post-emergence action against ORYSA in % [12, 19]: 20%; Post-emergence action against PHBPU in % ([14]; dosage 80 g/ha): 80%
O=C(COc1nn(-c2ncccc2F)c(-c2ccc(F)nc2)c1C1CC1)OCC1COC1 [Example I-264]	90	90	80	80	–	–	90	90	90	80	90	90	80	90	90	10	0	90	90	80	Post-emergence action against MATIN in % ([15]; dosage 320 g/ha): 80%; Post-emergence action against ZEAMX in % ([11]; 80 g/ha): 20%; Post-emergence action against ORYSA in % [12, 19]: 10%; Post-emergence action against PHBPU in % ([14]; dosage 80 g/ha): 80%
